Measured values published in patent publication US20090053294A1, “Anti Mineralocorticoid Therapy of Infection” (priority 2005, published 2009).

How the values were obtained:
[1] = molecular target: T1, progesterone receptors (Homo sapiens, UniProt P06401); details: cited from earlier work
T1 sequence (P06401 1-933): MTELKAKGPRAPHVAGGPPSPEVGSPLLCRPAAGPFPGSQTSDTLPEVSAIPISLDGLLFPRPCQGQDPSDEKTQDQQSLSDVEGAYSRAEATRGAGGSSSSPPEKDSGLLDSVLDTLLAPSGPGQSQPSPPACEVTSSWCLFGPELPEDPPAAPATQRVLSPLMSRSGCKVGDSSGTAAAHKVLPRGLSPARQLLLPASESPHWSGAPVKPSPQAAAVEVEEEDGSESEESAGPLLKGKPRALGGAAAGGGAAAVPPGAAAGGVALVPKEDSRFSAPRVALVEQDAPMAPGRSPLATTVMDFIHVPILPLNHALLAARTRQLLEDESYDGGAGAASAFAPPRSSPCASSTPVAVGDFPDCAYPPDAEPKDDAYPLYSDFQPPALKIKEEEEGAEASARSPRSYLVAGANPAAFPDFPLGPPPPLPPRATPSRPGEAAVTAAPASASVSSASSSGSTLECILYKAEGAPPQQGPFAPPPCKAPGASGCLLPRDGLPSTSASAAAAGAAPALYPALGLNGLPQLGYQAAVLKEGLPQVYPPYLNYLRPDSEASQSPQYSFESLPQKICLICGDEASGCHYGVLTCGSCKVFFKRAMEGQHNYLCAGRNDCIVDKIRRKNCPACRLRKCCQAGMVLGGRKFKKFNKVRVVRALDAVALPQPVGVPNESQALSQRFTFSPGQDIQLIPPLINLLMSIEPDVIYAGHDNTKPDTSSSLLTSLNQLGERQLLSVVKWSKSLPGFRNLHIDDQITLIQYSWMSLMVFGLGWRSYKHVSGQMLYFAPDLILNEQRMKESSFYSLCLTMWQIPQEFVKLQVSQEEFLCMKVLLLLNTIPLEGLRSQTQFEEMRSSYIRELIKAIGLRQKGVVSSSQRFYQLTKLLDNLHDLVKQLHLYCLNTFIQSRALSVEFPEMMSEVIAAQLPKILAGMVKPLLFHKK

[2] = 50 mg dose; cited from earlier work
[3] = tested on: monocytotropic HIV-1 isolates; assay: Anti-HIV activity in fresh human monocyte-macrophages (p24 ELISA); format: cell-based; details: MOI 0.1, p24 ELISA day 7 post-infection
Procedure: (§1) For isolation of adherent cells, 3×10^6 non-PHA stimulated peripheral blood cells are resuspended in Hanks buffered saline (with calcium and magnesium) supplemented with 10% human AB serum. The cells are placed in a 96-well microtiter plate at 37° C. for 2 hours. Non-adherent cells are removed by vigorously washing six times. The adherent cells are cultured for 7 days in RPMI 1640 tissue culture medium with 15% fetal bovine serum. The cultures are carefully monitored for confluency during this incubation period. Infection of the cells is performed with monocytotropic HIV-1 isolates. High titer pools of each of these viruses are harvested from Infected cultures of peripheral blood adherent cells and frozen in 1.0 ml aliquots at […]. […] Compounds to be evaluated in the monocyte-macrophage assay are added to the monolayers shortly before infection in order to maximize the potential for identifying active compounds.
(§2) At 2 days post-infection, the medium is decanted and the cultures washed twice with complete medium in order to remove excess virus. […] Control curves are generated in each assay to accurately quantitate the amount of capsid protein in each sample. Data is obtained by spectrophotometric analysis at 450 nm using a Molecular Devices Vmax plate reader. P24 concentrations are calculated from the optical density values by use of the Molecular Device software package Soft Max.

[4] = tested on: HIV-1; details: PBL, MOI 0.2, day 7, RT activity in supernatant
Procedure: Fresh human peripheral blood lymphocytes (PBL) are isolated from voluntary Red Cross donors, seronegative for HIV and HBV. Leukophoresed blood is diluted 1:1 with Dulbecco's phosphate buffered saline (PBS) and layered over 14 mL of Ficoll-Hypaque density gradient in a 50mi centrifuge tube. Tubes are then centrifuged for 30 minutes at 600 Xg. Banded PBLs are gently aspirated from the resulting interface and subsequently washed 2× with PBS by low speed centrifugation. After final wash, cells are enumerated by trypan blue exclusion are re-suspended at 1×10^7/ml in RPMI 1640 with 15% fetal bovine serum (FBS), 2 mM L-glutamine, 4 ug/ml PHA-P and allowed to incubate for 48-72 hours at 37″C. After incubation, PBLs are centrifuged and reset in RPMI 1640 with 15% FBS, 2 mM L-glutamine, 100 U/ml penicillin, 100 ug/ml streptomycin, 10 ug/ml gentamycin, and 20 U/ml recombinant human IL-2. PBLs are maintained in this medium at a concentration. of 1-2×10^6/ml with biweekly medium changes, until use in assay protocol. […]
In the standard PBL assay (MOI: 0.2), the assay is ended on day 7 following collection of cell free supernatant samples for reverse transcriptase activity assay. […] Opti-Fluor O is added to each filter mat, and incorporated radioactivity is quantitated utilizing a Wallac 1450 Microbetaplus liquid scintillation counter. […]

[5] = tested on: fresh human monocyte-macrophages; assay: Cytotoxicity in monocyte-macrophages (XTT staining); format: cell-based; details: XTT staining day 7 post-infection
Procedure: as §1, §2

[6] = tested on: fresh human peripheral blood lymphocytes (PBL); format: cell-based
[7] = in vivo; cited from earlier work

SMILES	binding affinity for progesterone receptors [1]	Na+/K+ effect [2]	HIV-1 levels in macrophages [3]	% HIV-1 levels / viral replication in T-lymphocyte cultures [4]	cell viability in macrophages [5]	health / cell growth of T-lymphocyte cultures [6]	extent of metabolism [7]
COC(=O)[C@@H]1CC2=CC(=O)CC[C@]2(C)[C@@]23O[C@@H]2C[C@@]2(C)[C@@H](CC[C@@]24CCC(=O)O4)[C@H]13 [Epoxymexrenone, epoxymexrenone]	reduced	equipotent with spironolactone	–	–	–	–	–
C[C@]12CCC(=O)C=C1C=C[C@@H]1[C@@H]2CC[C@@]2(C)[C@H]1CC[C@@]2(O)CCC(=O)O [potassium canrenoate]	–	–	decreased in a dose dependent fashion	decreased in a dose dependent manner	little effect on cell viability	remain healthy at all concentrations	–
CC(=O)S[C@@H]1CC2=CC(=O)CC[C@]2(C)[C@H]2CC[C@@]3(C)[C@@H](CC[C@@]34CCC(=O)O4)[C@H]12 [spironolactone, 17-hydroxy-7-alpha-mercapto-3oxo-17-alpha-pregn-4ene-21-carboxylic acid gamma-lactone acetate]	–	–	–	decreased in a dose dependent manner	–	remain healthy at all concentrations	extensively metabolised
